pIC50: −log10 of the molar value. Blank lines part the entries; values can stand above or below the compound they belong to.
Assays:
Piezo1 (Homo sapiens) [1] = assay: Antagonist activity at Yoda1-activated human Piezo1 in HUVECs assessed as inhibition of calcium influx by calcium fluorescence assay
Piezo1 (Homo sapiens) [2] = assay: Antagonist activity at human Piezo1
Piezo1 (Homo sapiens) [3] = assay: Inhibition of human Piezo1 assessed as intracellular calcium influx measured for 30 mins by Fluo-4 AM dye based fluorescence analysis
[4] = biological target: Amyloid-beta precursor protein (Homo sapiens, UniProt P05067); assay: Inhibition of amyloid beta (1 to 42) (unknown origin) aggregation incubated for 24 hrs by ThT assay
Amyloid-beta precursor protein, sequence (P05067 whole entry): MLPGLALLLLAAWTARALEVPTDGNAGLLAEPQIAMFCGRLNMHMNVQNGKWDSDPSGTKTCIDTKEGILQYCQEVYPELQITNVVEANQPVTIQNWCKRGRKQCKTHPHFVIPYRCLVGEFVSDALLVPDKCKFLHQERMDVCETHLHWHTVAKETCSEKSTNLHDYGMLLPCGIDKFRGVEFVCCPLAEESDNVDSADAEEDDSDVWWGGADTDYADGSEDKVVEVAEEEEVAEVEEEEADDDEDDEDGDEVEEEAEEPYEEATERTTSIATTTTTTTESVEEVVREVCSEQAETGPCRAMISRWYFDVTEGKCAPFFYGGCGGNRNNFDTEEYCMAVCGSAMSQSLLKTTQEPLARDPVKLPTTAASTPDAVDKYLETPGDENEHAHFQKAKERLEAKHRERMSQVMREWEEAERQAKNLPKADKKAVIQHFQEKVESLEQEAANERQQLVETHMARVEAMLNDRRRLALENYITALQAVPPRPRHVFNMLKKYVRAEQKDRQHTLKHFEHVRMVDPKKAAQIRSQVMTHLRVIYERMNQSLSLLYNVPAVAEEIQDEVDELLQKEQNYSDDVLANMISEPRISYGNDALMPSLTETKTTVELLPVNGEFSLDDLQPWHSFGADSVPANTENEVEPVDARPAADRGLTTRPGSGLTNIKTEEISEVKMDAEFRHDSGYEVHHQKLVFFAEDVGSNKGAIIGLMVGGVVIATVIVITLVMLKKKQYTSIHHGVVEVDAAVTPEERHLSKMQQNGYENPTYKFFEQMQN

- pIC50 (Piezo1 (Homo sapiens) [1]): 5.86
Structure (SMILES): O=C(/C=C/c1ccc(O)c2c1[C@H](C(=O)O[C@H](Cc1ccc(O)c(O)c1)C(=O)O)[C@@H](c1ccc(O)c(O)c1)O2)O[C@H](Cc1ccc(O)c(O)c1)C(=O)O

- pIC50 (Piezo1 (Homo sapiens) [2]): 5.89
Structure (SMILES): Clc1cccc(Cl)c1CSc1nnc(-c2ccc[nH]2)o1

- pIC50 (Piezo1 (Homo sapiens) [3]): 5.95
Structure (SMILES): C[C@@H]1O[C@@H](O[C@H]2[C@H](OC(=O)[C@]34CCC(C)(C)C[C@H]3C3=CC[C@@H]5[C@@]6(C)C[C@H](O)[C@@H]7O[C@@H]8O[C@H](CO)[C@@H](O)[C@H](O)[C@H]8O[C@@H]8OC[C@H](O)[C@H](O)[C@H]8OC(=O)CC(C)(O)CC(=O)OC[C@@]7(C)[C@@H]6CC[C@@]5(C)[C@]3(C)CC4)OC[C@H](O)[C@@H]2O)[C@H](O)[C@H](O[C@@H]2OC[C@@H](O)[C@H](O)[C@H]2O)[C@H]1O (some centres undefined)

- pIC50 [4]: 4.55
Structure (SMILES): CCCCCCCCCCCCCCCCC(=O)O [HEPTADECANOIC ACID]
